Reference: patent US8541460B2, “PDK-1/Akt signaling inhibitors” (The Ohio State University, priority 2003, dated 2013)

What was measured:
COLO 205 = assay: NCI DTP cell line screen (SRB), Colon Cancer; assay type: cell-based, human
Procedure: (§1) Screening of compounds 70 and 71 against several cancer cell lines The human tumor cell lines of the cancer screening panel are grown in RPMI 1640 medium containing 5% fetal bovine serum and 2 mM L-glutamine. For a typical screening experiment, cells are inoculated into 96 well microtiter plates in 100 μL at plating densities ranging from 5,000 to 40,000 cells/well depending on the doubling time of individual cell lines. After cell inoculation, the microtiter plates are incubated at 37° C., 5% CO2, 95% air and 100% relative humidity for 24 h prior to addition of experimental drugs.
(§2) After 24 h, two plates of each cell line are fixed in situ with TCA, to represent a measurement of the cell population for each cell line at the time of drug addition (Tz). Experimental drugs are solubilized in dimethyl sulfoxide at 400-fold the desired final maximum test concentration and stored frozen prior to use. At the time of drug addition, an aliquot of frozen concentrate is thawed and diluted to twice the desired final maximum test concentration with complete medium containing 50 μg/ml gentamicin. Additional four, 10-fold or ½ log serial dilutions are made to provide a total of five drug concentrations plus control. Aliquots of 100 μl of these different drug dilutions are added to the appropriate microtiter wells already containing 100 μl of medium, resulting in the required final drug concentrations.
(§3) Following drug addition, the plates are incubated for an additional 48 h at 37° C., 5% CO2, 95% air, and 100% relative humidity. For adherent cells, the assay is terminated by the addition of cold TCA. Cells are fixed in situ by the gentle addition of 50 μl of cold 50% (w/v) TCA (final concentration, 10% TCA) and incubated for 60 minutes at 4° C. The supernatant is discarded, and the plates are washed five times with tap water and air dried. Sulforhodamine B (SRB) solution (100 μl) at 0.4% (w/v) in 1% acetic acid is added to each well, and plates are incubated for 10 minutes at room temperature. After staining, unbound dye is removed by washing five times with 1% acetic acid and the plates are air dried. Bound stain is subsequently solubilized with 10 mM trizma base, and the absorbance is read on an automated plate reader at a wavelength of 515 nm. For suspension cells, the methodology is the same except that the assay is terminated by fixing settled cells at the bottom of the wells by gently adding 50 μl of 80% TCA (final concentration, 16% TCA). Using the seven absorbance measurements [time zero, (Tz), control growth, (C), and test growth in the presence of drug at the five concentration levels (Ti)], the percentage growth is calculated at each of the drug concentrations levels. Percentage growth inhibition is calculated as: [(Ti−Tz)/(C−Tz)]×100 for concentrations for which Ti>/=Tz [(Ti−Tz)/Tz]×100 for concentrations for which Ti<Tz
(§4) Three dose response parameters are calculated for each experimental agent. […] The drug concentration resulting in total growth inhibition (TGI) is calculated from Ti=Tz. […] Values are calculated for each of these three parameters if the level of activity is reached; however, if the effect is not reached or is exceeded, the value for that parameter is expressed as greater or less than the maximum or minimum concentration tested.
(§5) The methods described were used to test compounds 70 and 71 on a panel of sixty cell lines under a screening service provided by the Developmental Therapeutics Program at the National Institutes of Health. Shown in FIG. 1C are 1, RPMI-8226 leukemia cells; 2; NCI-H322M non-small cell lung cancer cells; 3, HT29 colon cancer cells; 4, U251 CNS cancer cells; 5, SK-MEL-28 melanoma cancer cells; 6, SK-OV-3 ovarian cancer cells; 7, RXF 393 renal cancer cells; 8, PC-3 prostate cancer cells; 9, MDA-MB-231 breast cancer cells.

COX-2 = COX-2 (Homo sapiens, UniProt P35354); assay: COX-2 inhibitory activity; assay type: biochemical; conditions: concentrations up to 50 μM
MDA-MB-231/ATCC = assay: NCI DTP cell line screen (SRB), Breast Cancer; assay type: cell-based
Procedure: as §1, §2, §3, §4, §5

NCI/ADR-RES = assay: NCI DTP cell line screen (SRB), Breast Cancer; assay type: cell-based
Procedure: as §1, §2, §3, §4, §5

T-47D = assay: NCI DTP cell line screen (SRB), Breast Cancer; assay type: cell-based
Procedure: as §1, §2, §3, §4, §5

HS 578T = assay: NCI DTP cell line screen (SRB), Breast Cancer; assay type: cell-based
Procedure: as §1, §2, §3, §4, §5

phospho-473Ser Akt = assay: Western blot of Akt and phospho-Akt in PC-3 cells; assay type: cell-based, human; conditions: 1 μM
Procedure: Immunoblotting. The general procedure for the Western blot analysis of Akt and phospho-Akt is described as follows. Cells were washed in PBS, resuspended in SDS sample buffer sonicated by an ultrasonic sonicator for 5 sec, and boiled for 5 min. After brief centrifugation, equivalent protein concentrations from the soluble fractions were resolved in 10% SDS-polyacrylamide gels on a Minigel apparatus, and transferred to a nitrocellulose membrane using a semi-dry transfer cell. The transblotted membrane was washed three times with TBS containing 0.05% Tween 20 (TBST). After blocking with TBST containing 5% nonfat milk for 60 min., the membrane was incubated with the primary antibody at 1:1,000 dilution in TBST-5% low fat milk at 4° C. for 12 h, and was then washed three times with TBST. The membrane was probed with goat anti-rabbit IgG-HRP conjugates (1:1,000) for 1 h at room temperature, and was washed with TBST three times. The immunoblots were visualized by enhanced chemiluminescence.

[1] = read-out: LC50 (the source's name)
[2] = HS 578T, Log10 Concentration −4.0
[3] = HS 578T, Log10 Concentration −5.0
[4] = HS 578T, Log10 Concentration −6.0
[5] = HS 578T, Log10 Concentration −7.0
[6] = HS 578T, Log10 Concentration −8.0

Chain of COX-2 (P35354 18-604): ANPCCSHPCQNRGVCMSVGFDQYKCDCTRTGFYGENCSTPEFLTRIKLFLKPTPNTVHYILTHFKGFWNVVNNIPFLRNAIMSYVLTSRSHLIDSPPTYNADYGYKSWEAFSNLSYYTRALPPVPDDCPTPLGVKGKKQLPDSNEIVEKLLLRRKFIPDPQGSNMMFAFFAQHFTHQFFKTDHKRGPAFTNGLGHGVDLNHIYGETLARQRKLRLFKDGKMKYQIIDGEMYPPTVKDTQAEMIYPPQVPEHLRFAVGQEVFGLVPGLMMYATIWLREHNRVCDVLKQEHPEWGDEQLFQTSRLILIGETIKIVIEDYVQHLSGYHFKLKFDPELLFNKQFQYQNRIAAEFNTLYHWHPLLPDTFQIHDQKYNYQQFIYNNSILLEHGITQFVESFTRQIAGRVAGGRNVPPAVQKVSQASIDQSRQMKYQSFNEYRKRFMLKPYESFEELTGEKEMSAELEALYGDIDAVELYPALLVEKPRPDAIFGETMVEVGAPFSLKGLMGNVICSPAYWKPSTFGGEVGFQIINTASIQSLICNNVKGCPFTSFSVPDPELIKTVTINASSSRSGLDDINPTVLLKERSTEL

## N=C(N)Nc1ccc(-n2nc(C(F)(F)F)cc2-c2ccc3c(ccc4ccccc43)c2)cc1 [Compound 71, 4-[5-(2-Phenanthrenyl)-3-(trifluoromethyl)-1H-pyrazol-1-yl]-phenyl-guanidine]
COLO 205
  GI50: 1.36 µM
  TGI: 2.69E−06
COLO 205; Log10 Concentration −4.0
  Mean Optical Densities: 0.151
  Percent Growth: −32%
COLO 205; Log10 Concentration −5.0
  Mean Optical Densities: 0.009
  Percent Growth: −96%
COLO 205; Log10 Concentration −6.0
  Mean Optical Densities: 0.930
  Percent Growth: 73%
COLO 205; Log10 Concentration −7.0
  Mean Optical Densities: 1.028
  Percent Growth: 83%
COLO 205; Log10 Concentration −8.0
  Mean Optical Densities: 1.146
  Percent Growth: 95%
COX-2
  COX-2 inhibitory activity: nor was any measurable COX-2 inhibitory activity detected
MDA-MB-231/ATCC
  TGI: 1.66E−06
MDA-MB-231/ATCC; Log10 Concentration −4.0
  Mean Optical Densities: 0.389
  Percent Growth: −39%
MDA-MB-231/ATCC; Log10 Concentration −5.0
  Mean Optical Densities: 0.015
  Percent Growth: −98%
MDA-MB-231/ATCC; Log10 Concentration −6.0
  Mean Optical Densities: 0.709
  Percent Growth: 27%
MDA-MB-231/ATCC; Log10 Concentration −7.0
  Mean Optical Densities: 0.830
  Percent Growth: 78%
MDA-MB-231/ATCC; Log10 Concentration −8.0
  Mean Optical Densities: 0.756
  Percent Growth: 47%
NCI/ADR-RES
  GI50: 2.64 µM
  TGI: 7.73E−06
NCI/ADR-RES; Log10 Concentration −4.0
  Mean Optical Densities: 0.294
  Percent Growth: −47%
NCI/ADR-RES; Log10 Concentration −5.0
  Mean Optical Densities: 0.490
  Percent Growth: −12%
NCI/ADR-RES; Log10 Concentration −6.0
  Mean Optical Densities: 1.874
  Percent Growth: 95%
NCI/ADR-RES; Log10 Concentration −7.0
  Mean Optical Densities: 1.882
  Percent Growth: 96%
NCI/ADR-RES; Log10 Concentration −8.0
  Mean Optical Densities: 1.920
  Percent Growth: 98%
NCI/ADR-RES; [1]
  CC50: > 100 µM
T-47D
  GI50: < 0.01 µM
  TGI: 1.98E−06
T-47D; Log10 Concentration −4.0
  Mean Optical Densities: 0.198
  Percent Growth: −53%
T-47D; Log10 Concentration −5.0
  Mean Optical Densities: 0.100
  Percent Growth: −76%
T-47D; Log10 Concentration −6.0
  Mean Optical Densities: 0.529
  Percent Growth: 32%
T-47D; Log10 Concentration −7.0
  Mean Optical Densities: 0.578
  Percent Growth: 47%
T-47D; Log10 Concentration −8.0
  Mean Optical Densities: 0.541
  Percent Growth: 36%
T-47D; [1]
  CC50: 5.72 µM
HS 578T; HS 578T
  GI50: 1.86 µM
  TGI: 3.78E−06
HS 578T; [2]
  Mean Optical Densities: 0.333
  Percent Growth: −38%
HS 578T; [3]
  Mean Optical Densities: 0.168
  Percent Growth: −69%
HS 578T; [4]
  Mean Optical Densities: 1.127
  Percent Growth: 94%
HS 578T; [5]
  Mean Optical Densities: 1.165
  Percent Growth: 100%
HS 578T; [6]
  Mean Optical Densities: 1.099
  Percent Growth: 89%
phospho-473Ser Akt
  phospho-Akt level: substantial decrease in the phospho-Akt level

## NCC(=O)Nc1ccc(-n2nc(C(F)(F)F)cc2-c2ccc3c(ccc4ccccc43)c2)cc1 [Compound 70, 2-Amino-N-{4-[5-(2-phenanthrenyl)-3-(trifluoromethyl)-1H-pyrazol-1-yl]-phenyl}-acetamide]
COLO 205; Log10 Concentration −4.0
  Percent Growth: 1%
COLO 205; Log10 Concentration −5.0
  Percent Growth: −53%
COLO 205; Log10 Concentration −6.0
  Percent Growth: 58%
COLO 205; Log10 Concentration −7.0
  Percent Growth: 87%
COLO 205; Log10 Concentration −8.0
  Percent Growth: 89%
COX-2
  COX-2 inhibitory activity: nor was any measurable COX-2 inhibitory activity detected
MDA-MB-231/ATCC
  TGI: 2.77E−06
MDA-MB-231/ATCC; Log10 Concentration −4.0
  Percent Growth: −52%
MDA-MB-231/ATCC; Log10 Concentration −5.0
  Percent Growth: −73%
MDA-MB-231/ATCC; Log10 Concentration −6.0
  Percent Growth: 58%
MDA-MB-231/ATCC; Log10 Concentration −7.0
  Percent Growth: 71%
MDA-MB-231/ATCC; Log10 Concentration −8.0
  Percent Growth: 100%
NCI/ADR-RES
  TGI: 2.85E−06
NCI/ADR-RES; Log10 Concentration −4.0
  Percent Growth: −62%
NCI/ADR-RES; Log10 Concentration −5.0
  Percent Growth: −59%
NCI/ADR-RES; Log10 Concentration −6.0
  Percent Growth: 49%
NCI/ADR-RES; Log10 Concentration −7.0
  Percent Growth: 98%
NCI/ADR-RES; Log10 Concentration −8.0
  Percent Growth: 98%
T-47D
  TGI: 4.21E−06
T-47D; Log10 Concentration −4.0
  Percent Growth: −44%
T-47D; Log10 Concentration −5.0
  Percent Growth: −52%
T-47D; Log10 Concentration −6.0
  Percent Growth: 86%
T-47D; Log10 Concentration −7.0
  Percent Growth: 109%
T-47D; Log10 Concentration −8.0
  Percent Growth: 84%
HS 578T; HS 578T
  TGI: 5.25E−06
HS 578T; [2]
  Percent Growth: −38%
HS 578T; [3]
  Percent Growth: −34%
HS 578T; [4]
  Percent Growth: 88%
HS 578T; [5]
  Percent Growth: 99%
HS 578T; [6]
  Percent Growth: 105%
HS 578T; Homo sapiens, Hs-578T, read-out: LC50
  CC50: > 100 µM
phospho-473Ser Akt
  phospho-Akt level: substantial decrease in the phospho-Akt level
